Values of other authors as cited in EP4374853A1, “SOLID FORMULATION OF ENZALUTAMIDE” (Lotus Pharmaceutical Co., Ltd., priority 2022, dated 2024).

Assays:
[1] = between pH 1-11

Solubility in aqueous media [1]: practically insoluble | Permeability: high permeability
Compound: CNC(=O)c1ccc(N2C(=S)N(c3ccc(C#N)c(C(F)(F)F)c3)C(=O)C2(C)C)cc1F [Enzalutamide, 4-{3-[4-cyano-3-(trifluoromethyl)phenyl]-5,5-dimethyl-4-oxo-2-sulfanylideneimiidazolidin-1-yl}-2-fluoro-N-methylbenzymide]
